Values belong to the compound of their own block, whether it stands above or below them.
Columns and labels:
COX-1 = molecular target: T1, COX-1 (Ovis aries, UniProt P05979); assay: COX fluorescent inhibitor screening assay, COX-1; format: biochemical; conditions: even at 50 μM
T1 sequence (P05979 25-600): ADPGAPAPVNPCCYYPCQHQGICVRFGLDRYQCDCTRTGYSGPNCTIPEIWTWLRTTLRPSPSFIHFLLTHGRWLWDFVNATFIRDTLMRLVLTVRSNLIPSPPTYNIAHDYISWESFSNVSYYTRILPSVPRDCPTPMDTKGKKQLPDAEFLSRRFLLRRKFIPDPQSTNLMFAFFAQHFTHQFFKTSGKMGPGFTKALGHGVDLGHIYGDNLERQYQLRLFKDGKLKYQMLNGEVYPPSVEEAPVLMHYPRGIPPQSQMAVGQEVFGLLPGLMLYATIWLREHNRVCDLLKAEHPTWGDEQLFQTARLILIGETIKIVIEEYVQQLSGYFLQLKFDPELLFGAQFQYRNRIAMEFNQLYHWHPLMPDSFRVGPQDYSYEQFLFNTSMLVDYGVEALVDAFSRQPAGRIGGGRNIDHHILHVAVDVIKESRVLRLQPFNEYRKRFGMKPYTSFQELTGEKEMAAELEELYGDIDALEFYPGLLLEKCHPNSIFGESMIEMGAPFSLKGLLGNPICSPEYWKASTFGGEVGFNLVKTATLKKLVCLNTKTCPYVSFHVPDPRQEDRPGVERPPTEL

NB4 cells [1] = assay: Cellular uptake by LC-MS/MS quantitation, NB4; format: cell-based, human; conditions: 10 μM for 24 hr
COX-2 = molecular target: T2, COX-2 (Homo sapiens, UniProt P35354); assay: COX fluorescent inhibitor screening assay, COX-2; format: biochemical; conditions: even at 50 μM
T2 sequence (P35354 18-604): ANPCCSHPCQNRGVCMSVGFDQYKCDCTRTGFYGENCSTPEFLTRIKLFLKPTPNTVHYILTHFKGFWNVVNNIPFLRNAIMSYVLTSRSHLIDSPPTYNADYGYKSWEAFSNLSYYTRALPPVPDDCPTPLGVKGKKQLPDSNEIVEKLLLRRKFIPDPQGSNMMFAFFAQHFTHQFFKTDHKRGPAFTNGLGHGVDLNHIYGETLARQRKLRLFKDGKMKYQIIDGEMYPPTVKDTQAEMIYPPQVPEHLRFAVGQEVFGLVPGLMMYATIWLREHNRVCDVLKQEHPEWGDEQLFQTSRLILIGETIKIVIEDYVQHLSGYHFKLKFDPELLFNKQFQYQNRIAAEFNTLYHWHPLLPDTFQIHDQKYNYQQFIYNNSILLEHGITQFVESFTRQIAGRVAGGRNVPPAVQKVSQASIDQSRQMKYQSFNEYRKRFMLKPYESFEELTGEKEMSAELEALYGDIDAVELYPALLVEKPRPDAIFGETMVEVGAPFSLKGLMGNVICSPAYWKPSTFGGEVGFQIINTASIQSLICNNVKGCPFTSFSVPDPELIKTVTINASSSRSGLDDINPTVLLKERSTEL

MONOMAC6 cells [2] = assay: Cell proliferation assay, MONOMAC6; format: cell-based; conditions: Homo sapiens, MONO-MAC-6, 72 h, read-out: IC50, proliferation
ALKBH5 [3] = molecular target: T3, ALKBH5 (Homo sapiens, UniProt Q6P6C2); assay: HPLC-based assay of inhibition of ALKBH5 m6A demethylation in RNA; format: biochemical
Target sequence in this assay (Q6P6C2 67-394 limits assumed): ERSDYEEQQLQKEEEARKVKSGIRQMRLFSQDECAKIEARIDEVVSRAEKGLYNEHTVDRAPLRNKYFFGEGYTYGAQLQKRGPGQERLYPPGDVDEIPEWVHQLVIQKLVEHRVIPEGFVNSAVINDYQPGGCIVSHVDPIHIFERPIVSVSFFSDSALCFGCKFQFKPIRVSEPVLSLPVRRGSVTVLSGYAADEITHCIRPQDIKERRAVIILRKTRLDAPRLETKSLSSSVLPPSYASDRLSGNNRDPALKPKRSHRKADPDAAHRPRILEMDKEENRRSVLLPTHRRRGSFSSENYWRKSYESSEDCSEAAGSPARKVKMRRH

MONOMAC6 cells [4] = assay: Cellular uptake by LC-MS/MS quantitation, MONOMAC6; format: cell-based, human; conditions: 10 μM for 24 hr
[5] = test system: HDAC, DOTL1, BRD, LSD1 and Jumonji domain-containing histone demethylases; assay: Inhibition of epigenetic enzymes in vitro; format: biochemical
NB4 cells [6] = assay: Cell proliferation assay, NB4; format: cell-based; conditions: Homo sapiens, NB-4, 72 h, read-out: IC50, proliferation
[7] = test system: human normal bone marrow (BM) cells; assay: Proliferation of normal bone marrow cells; format: cell-based; conditions: BM cells from a healthy donor
[8] = test system: primary AML cells (patient Pt 2017_63); assay: PDX AML mouse model; conditions: 6 mg/kg/day i.p. for 17 days
[9] = Toxicity study in BALB/c mice; format: in vivo; conditions: 20 mg/kg i.p. daily for 14 days
[10] = Microsomal stability assay; format: in vitro ADME; conditions: SD, rat, liver microsomes
NB4 and MONOMAC6 cells = assay: Cell proliferation assay, NB4 and MONOMAC6; format: cell-based; conditions: Homo sapiens, MONO-MAC-6, 72 h, read-out: IC50, anti-proliferative activity
human primary AML cells = assay: Cell proliferation assay, primary AML cells from four patients; format: cell-based; conditions: 96 h, read-out: IC50, proliferation of primary AML cells
FTO [11] = molecular target: T4, FTO (Homo sapiens, UniProt Q9C0B1); assay: HPLC-based assay of inhibition of FTO m6A demethylation in RNA; format: biochemical; conditions: HPLC quantification
Target sequence in this assay (Q9C0B1 32-505 limits assumed): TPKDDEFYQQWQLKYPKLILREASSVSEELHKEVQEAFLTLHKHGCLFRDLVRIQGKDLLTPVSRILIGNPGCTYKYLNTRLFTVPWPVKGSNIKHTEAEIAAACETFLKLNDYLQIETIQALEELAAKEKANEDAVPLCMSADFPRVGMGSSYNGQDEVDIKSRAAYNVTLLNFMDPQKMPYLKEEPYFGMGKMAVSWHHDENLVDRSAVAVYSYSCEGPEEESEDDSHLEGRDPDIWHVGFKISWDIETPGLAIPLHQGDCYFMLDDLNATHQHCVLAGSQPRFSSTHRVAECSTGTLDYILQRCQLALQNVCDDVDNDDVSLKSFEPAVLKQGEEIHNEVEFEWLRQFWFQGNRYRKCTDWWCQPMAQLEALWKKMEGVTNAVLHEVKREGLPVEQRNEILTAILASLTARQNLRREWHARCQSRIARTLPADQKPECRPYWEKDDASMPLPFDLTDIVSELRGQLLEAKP

FTO [12] = molecular target: T4, FTO; assay: DARTS assay for FTO in AML cell lysates; format: binding; conditions: 50, 200, 500 μM
Target sequence in this assay (Q9C0B1 whole entry): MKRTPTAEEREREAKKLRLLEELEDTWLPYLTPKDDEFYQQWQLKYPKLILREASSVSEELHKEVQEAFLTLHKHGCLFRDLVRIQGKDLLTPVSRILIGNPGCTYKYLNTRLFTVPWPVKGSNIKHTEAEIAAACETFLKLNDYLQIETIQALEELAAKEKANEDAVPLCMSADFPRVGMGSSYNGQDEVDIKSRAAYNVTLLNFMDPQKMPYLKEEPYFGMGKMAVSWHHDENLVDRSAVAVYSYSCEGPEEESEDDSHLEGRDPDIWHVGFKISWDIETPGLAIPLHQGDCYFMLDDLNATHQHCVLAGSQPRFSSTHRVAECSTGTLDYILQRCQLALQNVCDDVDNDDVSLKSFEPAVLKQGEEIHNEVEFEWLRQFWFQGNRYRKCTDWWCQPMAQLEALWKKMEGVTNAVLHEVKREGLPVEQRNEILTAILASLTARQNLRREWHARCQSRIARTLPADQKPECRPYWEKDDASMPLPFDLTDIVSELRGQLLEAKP

MONOMAC6 AML cells = assay: MONOMAC6 xeno-transplantation leukemic model; format: in vivo, NSGS mice; conditions: 2 mg/kg i.p. daily for 10 days, from 10 days post xeno-transplantation
[13] = test system: MA9.3ITD, MA9.3RAS, U937, ML-2 and MV4-11 AML cell lines; assay: Cell proliferation assay, panel of additional AML cell lines; format: cell-based; conditions: Homo sapiens, 96 h, read-out: IC50, proliferation
TET1 protein = molecular target: T5, TET1 protein (Homo sapiens, UniProt Q8NFU7); assay: TET1 enzyme activity in vitro; format: biochemical; conditions: 20 μM
T5 sequence (Q8NFU7 1418-2136 limits assumed): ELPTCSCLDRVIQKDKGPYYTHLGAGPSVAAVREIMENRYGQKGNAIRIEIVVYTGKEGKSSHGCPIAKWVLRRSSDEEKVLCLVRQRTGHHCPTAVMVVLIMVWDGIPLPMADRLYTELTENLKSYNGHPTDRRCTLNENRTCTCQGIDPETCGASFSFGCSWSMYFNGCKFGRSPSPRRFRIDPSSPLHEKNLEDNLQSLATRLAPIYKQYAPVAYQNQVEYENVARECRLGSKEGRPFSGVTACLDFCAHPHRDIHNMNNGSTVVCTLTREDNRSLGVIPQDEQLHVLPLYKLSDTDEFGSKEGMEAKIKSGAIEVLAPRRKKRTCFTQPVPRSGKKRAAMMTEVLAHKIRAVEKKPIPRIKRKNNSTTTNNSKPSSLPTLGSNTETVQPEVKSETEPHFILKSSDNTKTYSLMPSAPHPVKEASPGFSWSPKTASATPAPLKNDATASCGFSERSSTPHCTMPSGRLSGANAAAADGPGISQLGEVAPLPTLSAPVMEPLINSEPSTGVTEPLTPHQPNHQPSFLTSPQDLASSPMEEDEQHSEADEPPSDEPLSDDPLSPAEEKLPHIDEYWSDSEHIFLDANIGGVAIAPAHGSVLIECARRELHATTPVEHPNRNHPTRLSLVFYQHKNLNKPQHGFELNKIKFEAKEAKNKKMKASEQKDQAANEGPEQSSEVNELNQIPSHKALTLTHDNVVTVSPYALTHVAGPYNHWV

[14] = test system: functional primary AML LSCs; assay: Secondary transplantation of PDX AML cells; conditions: AML cells from primary FB23-2-treated PDX mice
ALKBH5 [15] = molecular target: T3, ALKBH5; assay: DARTS assay for ALKBH5 in AML cell lysates; format: binding
Target sequence in this assay (Q6P6C2 whole entry): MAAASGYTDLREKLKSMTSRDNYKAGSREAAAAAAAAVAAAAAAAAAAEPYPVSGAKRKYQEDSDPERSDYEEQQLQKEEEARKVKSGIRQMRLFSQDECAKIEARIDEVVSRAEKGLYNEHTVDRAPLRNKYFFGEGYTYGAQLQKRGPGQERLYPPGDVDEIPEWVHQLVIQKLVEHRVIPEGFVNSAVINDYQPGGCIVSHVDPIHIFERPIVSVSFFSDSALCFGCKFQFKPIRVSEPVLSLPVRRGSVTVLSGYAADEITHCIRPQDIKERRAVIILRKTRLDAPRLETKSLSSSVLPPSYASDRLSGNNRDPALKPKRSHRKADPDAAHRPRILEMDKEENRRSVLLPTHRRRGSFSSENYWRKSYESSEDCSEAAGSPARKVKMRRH

oncogenic proteases = assay: Protease profiling; format: biochemical, human; conditions: 1 μM or 10 μM
[16] = test system: m6A peaks in mRNA of MONOMAC6 AML cells; assay: m6A-seq in MONOMAC6 cells; format: cell-based, human; conditions: 5 μM, 72 hr, peaks identified in both DMSO and treated groups
[17] = Pharmacokinetics in SD rats; format: in vivo; conditions: male, Sprague Dawley, rat, plasma, ip, 3 mg/kg

- intracellular concentration (NB4 cells [1]): 0.02 nmol/million
- inhibition of ALKBH5 demethylation in vitro (ALKBH5 [3]): neither FB23 nor FB23-2 inhibits
- intracellular concentration (MONOMAC6 cells [4]): 0.015 nmol/million
- effect on activities of epigenetic targets in vitro [5]: slightly attenuated
Compound: Cc1noc(C)c1-c1cc(Cl)c(Nc2ccccc2C(=O)O)c(Cl)c1 [FB23, 2-((2,6-dichloro-4-(3,5-dimethylisoxazol-4-yl)phenyl)amino)benzoic acid]
- inhibition of COX-1 (COX-1): neither FB23 nor FB23-2 was observed to significantly inhibit
- inhibition of COX-2 (COX-2): neither FB23 nor FB23-2 was observed to significantly inhibit
- IC50 (MONOMAC6 cells [2]): 23.6 µM
- IC50 (NB4 cells [6]): 44.8 µM

Compound: Cc1noc(C)c1-c1cc(Cl)c(Nc2ccccc2C(=O)NO)c(Cl)c1 [FB23-2, 2-((2,6-dichloro-4-(3,5-dimethylisoxazol-4-yl)phenyl)amino)-N-hydroxybenzamide]
- effect on proliferation of normal BM cells [7]: minimally altered proliferation
- median survival time [8]: 58 days
- inhibition of COX-1 (COX-1): neither FB23 nor FB23-2 was observed to significantly inhibit
- body weight loss [9]: no evidence of body weight loss
- hematopoiesis (hematology and plasma biochemistry) vs vehicle [9]: no significant difference
- physical damage on organs [9]: nor was any physical damage observed
- CLint scaled at 3 μM [10]: 19.7 mL/min/kg
- half-life at 3 μM [10]: 2.13 h
- IC50 (NB4 and MONOMAC6 cells): 0.8 to 1.5 µM
- IC50 (human primary AML cells): 1.6 to 16 µM
- inhibition of COX-2 (COX-2): neither FB23 nor FB23-2 was observed to significantly inhibit
- inhibitory activity on FTO demethylation in vitro (FTO [11]): maintains inhibitory activity
- protease resistance of FTO protein (DARTS) (FTO [12]): protease-resistant
- inhibition of ALKBH5 demethylation in vitro (ALKBH5 [3]): neither FB23 nor FB23-2 inhibits
- survival of leukemic mice (MONOMAC6 AML cells): almost doubling the median survival
- IC50 [13]: 1.9 to 5.2 µM
- inhibition of TET1 protein in vitro (TET1 protein): minimally inhibited
- secondary PDX mice still surviving after 100 days [14]: 50%
- effect on activities of epigenetic targets in vitro [5]: slightly attenuated
- direct binding to ALKBH5 (DARTS) (ALKBH5 [15]): could not directly bind
- inhibition of oncogenic proteases (oncogenic proteases): barely inhibited
- share of m6A peaks increased upon treatment [16]: 62.1%
- AUC(0-t) [17]: 2180 ± 152 ng·h/mL
- Cmax [17]: 2420 ± 90.9 ng/mL
- Tmax [17]: 4.8 min
- half-life [17]: 6.7 ± 1.3 h
